Laboratory results: ChEMBL document CHEMBL4825718, “Novel Dihydrooxadiazinones as PDE3 Inhibitors for Treating Cancer” (ACS Med Chem Lett, 2021)

Key:
SK-MEL3 = assay: Antiproliferative activity against human SK-MEL3 cells assessed as cell growth inhibition after 72 hrs by Cell titer glo assay; format: functional, cell-based; conditions: SK-MEL3, 72 h
[1] = target: cGMP-inhibited 3',5'-cyclic phosphodiesterase 3B (Homo sapiens, UniProt Q13370); assay: Inhibition of human full length PDE3B expressed in Sf9 cells measured after 60 mins by [3H]-cAMP Scintillation proximity assay
IGR-37 cell line = assay: Antiproliferative activity against human IGR37 cells assessed as cell growth inhibition after 72 hrs by Cell titer glo assay; format: functional, cell-based; conditions: IGR-37, 72 h
[2] = target: cGMP-inhibited 3',5'-cyclic phosphodiesterase 3A (Homo sapiens, UniProt Q14432); assay: Inhibition of human full length PDE3A expressed in Sf9 cells measured after 60 mins by [3H]-cAMP Scintillation proximity assay
HeLa = assay: Antiproliferative activity against human HeLa cells assessed as cell growth inhibition after 72 hrs by Cell titer glo assay; format: functional, cell-based

Chain of cGMP-inhibited 3',5'-cyclic phosphodiesterase 3A (Q14432 whole entry): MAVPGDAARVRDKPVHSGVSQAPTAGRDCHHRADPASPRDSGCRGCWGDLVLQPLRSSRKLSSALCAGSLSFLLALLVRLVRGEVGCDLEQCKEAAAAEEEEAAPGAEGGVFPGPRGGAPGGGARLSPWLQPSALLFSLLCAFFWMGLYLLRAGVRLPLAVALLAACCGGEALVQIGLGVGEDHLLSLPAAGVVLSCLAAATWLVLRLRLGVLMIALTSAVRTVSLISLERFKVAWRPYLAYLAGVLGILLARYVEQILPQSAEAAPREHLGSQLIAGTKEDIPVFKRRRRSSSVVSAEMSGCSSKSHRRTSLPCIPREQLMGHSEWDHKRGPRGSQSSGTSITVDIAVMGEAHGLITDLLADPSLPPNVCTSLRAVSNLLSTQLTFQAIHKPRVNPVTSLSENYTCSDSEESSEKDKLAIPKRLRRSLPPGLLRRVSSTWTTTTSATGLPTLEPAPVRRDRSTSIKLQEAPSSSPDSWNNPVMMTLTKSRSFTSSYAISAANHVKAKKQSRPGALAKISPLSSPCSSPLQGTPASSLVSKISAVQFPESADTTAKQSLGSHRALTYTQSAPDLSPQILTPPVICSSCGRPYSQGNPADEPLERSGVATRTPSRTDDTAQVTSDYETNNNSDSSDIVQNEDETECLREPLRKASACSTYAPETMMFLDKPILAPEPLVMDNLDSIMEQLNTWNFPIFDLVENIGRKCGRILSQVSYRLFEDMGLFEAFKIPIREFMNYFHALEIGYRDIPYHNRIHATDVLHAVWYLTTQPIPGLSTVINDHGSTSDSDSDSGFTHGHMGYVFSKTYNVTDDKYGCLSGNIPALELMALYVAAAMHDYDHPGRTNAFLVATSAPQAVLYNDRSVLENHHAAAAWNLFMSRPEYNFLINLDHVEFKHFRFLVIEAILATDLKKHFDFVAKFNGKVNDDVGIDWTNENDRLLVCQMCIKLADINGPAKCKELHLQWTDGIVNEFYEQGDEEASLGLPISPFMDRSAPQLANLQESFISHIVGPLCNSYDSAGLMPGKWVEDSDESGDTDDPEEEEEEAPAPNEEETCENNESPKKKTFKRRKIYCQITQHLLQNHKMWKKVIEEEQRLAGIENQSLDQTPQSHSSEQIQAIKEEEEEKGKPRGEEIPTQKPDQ
Chain of cGMP-inhibited 3',5'-cyclic phosphodiesterase 3B (Q13370 whole entry): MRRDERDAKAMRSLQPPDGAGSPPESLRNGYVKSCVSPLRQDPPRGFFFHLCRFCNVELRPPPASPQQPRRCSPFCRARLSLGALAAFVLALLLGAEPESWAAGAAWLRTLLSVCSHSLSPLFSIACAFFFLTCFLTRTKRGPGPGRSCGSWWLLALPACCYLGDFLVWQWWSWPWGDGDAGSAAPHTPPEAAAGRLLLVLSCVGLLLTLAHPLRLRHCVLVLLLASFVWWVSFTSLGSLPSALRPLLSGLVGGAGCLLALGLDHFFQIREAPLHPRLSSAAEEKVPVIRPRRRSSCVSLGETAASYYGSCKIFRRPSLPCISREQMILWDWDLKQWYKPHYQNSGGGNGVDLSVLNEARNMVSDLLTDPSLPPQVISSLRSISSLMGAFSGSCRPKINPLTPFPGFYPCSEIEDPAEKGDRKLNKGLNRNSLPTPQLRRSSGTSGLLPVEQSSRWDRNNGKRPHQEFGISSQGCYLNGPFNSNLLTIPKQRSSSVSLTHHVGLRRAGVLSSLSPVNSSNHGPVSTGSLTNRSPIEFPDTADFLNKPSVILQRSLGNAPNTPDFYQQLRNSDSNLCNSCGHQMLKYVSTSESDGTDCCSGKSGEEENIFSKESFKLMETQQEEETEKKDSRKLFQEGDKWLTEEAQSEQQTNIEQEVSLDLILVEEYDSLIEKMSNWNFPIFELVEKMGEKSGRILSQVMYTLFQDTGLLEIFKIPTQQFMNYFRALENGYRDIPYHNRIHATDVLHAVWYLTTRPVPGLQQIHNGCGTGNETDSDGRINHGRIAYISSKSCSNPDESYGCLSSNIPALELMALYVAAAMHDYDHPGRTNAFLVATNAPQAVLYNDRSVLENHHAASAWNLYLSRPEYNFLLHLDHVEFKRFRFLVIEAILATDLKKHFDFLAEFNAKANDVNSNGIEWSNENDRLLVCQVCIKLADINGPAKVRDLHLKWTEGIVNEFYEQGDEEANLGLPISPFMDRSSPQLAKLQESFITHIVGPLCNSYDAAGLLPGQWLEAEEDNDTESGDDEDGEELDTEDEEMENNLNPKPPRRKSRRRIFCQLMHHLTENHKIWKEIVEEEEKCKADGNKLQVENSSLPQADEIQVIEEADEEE

| SMILES | IC50 (SK-MEL3) | IC50 [1] | IC50 (IGR-37 cell line) | IC50 [2] | IC50 (HeLa) |
| --- | --- | --- | --- | --- | --- |
| C[C@@H]1OC(=O)NN=C1c1ccc(OC[C@@H](C)F)c(C(F)(F)F)c1 | 500 pM | 9000 pM | 300 pM | 9000 pM | 200 pM |
| CCCCOc1ccc(C2=NNC(=O)O[C@H]2C)cc1C(F)(F)F | 600 pM | – | 500 pM | – | 200 pM |
| CCOc1ccc(C2=NNC(=O)O[C@H]2C)cc1C(F)(F)F | 600 pM | 7000 pM | 500 pM | 6000 pM | 300 pM |
| C[C@@H]1OC(=O)NN=C1c1ccc(OCCC(F)(F)F)c(C(F)(F)F)c1 | 300 pM | 5000 pM | 300 pM | 7000 pM | 100 pM |
| CCCOc1ccc(C2=NNC(=O)O[C@H]2C)cc1C(F)(F)F | 300 pM | 5000 pM | 300 pM | 8000 pM | 100 pM |
| COCCOc1ccc(C2=NNC(=O)O[C@H]2C)cc1C(F)(F)F | 300 pM | – | 200 pM | – | 100 pM |
